Laboratory results published in patent US8916540B2, “Antibiotic compositions and related screening methods” (Academia Sinica, priority 2008, dated 2014).

How the values were obtained:
[1] = test system: Staphylococcus aureus; conditions: literature citation 10; cited from earlier work
[2] = molecular target: T1, E. coli PBP1b TG+TP (residues 88-844) (Escherichia coli, UniProt P02919); assay: SPR moenomycin binding to truncated PBP1b variant; conditions: PBP without the transmembrane domain
T1 construct: TG+TP (residues 88-844); His tag (implied by nickel chelation chromatography); made in house; host or cells: E. coli (pET vectors)
T1 sequence (P02919 88-844): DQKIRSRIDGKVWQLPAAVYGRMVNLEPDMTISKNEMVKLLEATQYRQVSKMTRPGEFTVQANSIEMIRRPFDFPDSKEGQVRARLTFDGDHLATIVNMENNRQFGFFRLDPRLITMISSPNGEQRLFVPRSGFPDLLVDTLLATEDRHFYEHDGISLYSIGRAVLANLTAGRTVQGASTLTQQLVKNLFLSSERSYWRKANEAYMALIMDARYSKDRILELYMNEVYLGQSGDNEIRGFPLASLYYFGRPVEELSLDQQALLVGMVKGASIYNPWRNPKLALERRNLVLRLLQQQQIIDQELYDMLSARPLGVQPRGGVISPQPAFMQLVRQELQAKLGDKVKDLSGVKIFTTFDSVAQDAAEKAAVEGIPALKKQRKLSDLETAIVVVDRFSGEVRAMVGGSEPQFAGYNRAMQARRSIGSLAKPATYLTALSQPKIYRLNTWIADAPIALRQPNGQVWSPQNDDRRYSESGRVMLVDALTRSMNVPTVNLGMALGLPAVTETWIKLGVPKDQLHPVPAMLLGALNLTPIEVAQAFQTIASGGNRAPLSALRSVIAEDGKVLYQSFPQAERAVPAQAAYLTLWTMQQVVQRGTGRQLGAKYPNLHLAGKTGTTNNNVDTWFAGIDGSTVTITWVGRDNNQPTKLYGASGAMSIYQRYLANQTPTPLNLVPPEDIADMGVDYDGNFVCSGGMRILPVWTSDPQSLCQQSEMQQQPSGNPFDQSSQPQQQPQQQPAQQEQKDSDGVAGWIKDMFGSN
Text: . Five E. coli PBP1b variants were expressed and purified: 1) full-length protein containing transmembrane, transglycosylase and transpeptidase domains (TM+TG+TP), 2) TG+TP, 3) TM+TG, 4) TG, and 5) TP (FIG. 1B).
. FIG. 1(B) is a schematic representation of the PBP variants used for moenomycin binding studies. The full-length PBP (TM+TG+TP) contains amino acid residues 1-844 of the E. coli PBP1b P02919. TG+TP (residues 88-844), TM+TG (residues 1-409), TG (residues 195-409), and TP (residues 444-736) are truncated variants with the part of the full-length PBP1b. The moenomycin binding constant (KD) for these variants were determined using SPR.
After immobilization of the target proteins on the sensor chip, different concentrations of moenomycin were passed through the surface and the binding affinities were determined. […].
Purified PBP and its variants were immobilized onto CM3 chip (GE healthcare, Uppsala, Sweden) to about 1,500˜2,000 RU via amine-coupling method. […]. Immobilization and data collection were performed with BIAcore T100 (GE Healthcare, Uppsala, Sweden) at 25° C.

[3] = test system: Shigella flexneri; assay: Minimal inhibitory concentration (MIC) determination; assay type: cell-based

In the case of Moenomycin A [Compound 1], the “Reported values MIC” value [1] is listed as 0.02 to 0.12 µM, the “moenomycin binding activity of TG+TP variant relative to full-length PBP1b (fold lower)” value [2] is listed as “about 5 fold” and the “moenomycin binding activity of TG+TP variant relative to full-length PBP1b (fold lower)” value ([2]; listed as Moe A) is listed as “decreased five-fold”. It also gave an MIC [3] of 40 µM.
